Experimental data as given in US8633183B2 (priority 2010, dated 2014).

Molecular target: PI3Kalpha (Homo sapiens (Human), UniProt P42336)
Conditions: read-out: IC50 PI3K

Sequence of PI3Kalpha (P42336 whole entry, looked up): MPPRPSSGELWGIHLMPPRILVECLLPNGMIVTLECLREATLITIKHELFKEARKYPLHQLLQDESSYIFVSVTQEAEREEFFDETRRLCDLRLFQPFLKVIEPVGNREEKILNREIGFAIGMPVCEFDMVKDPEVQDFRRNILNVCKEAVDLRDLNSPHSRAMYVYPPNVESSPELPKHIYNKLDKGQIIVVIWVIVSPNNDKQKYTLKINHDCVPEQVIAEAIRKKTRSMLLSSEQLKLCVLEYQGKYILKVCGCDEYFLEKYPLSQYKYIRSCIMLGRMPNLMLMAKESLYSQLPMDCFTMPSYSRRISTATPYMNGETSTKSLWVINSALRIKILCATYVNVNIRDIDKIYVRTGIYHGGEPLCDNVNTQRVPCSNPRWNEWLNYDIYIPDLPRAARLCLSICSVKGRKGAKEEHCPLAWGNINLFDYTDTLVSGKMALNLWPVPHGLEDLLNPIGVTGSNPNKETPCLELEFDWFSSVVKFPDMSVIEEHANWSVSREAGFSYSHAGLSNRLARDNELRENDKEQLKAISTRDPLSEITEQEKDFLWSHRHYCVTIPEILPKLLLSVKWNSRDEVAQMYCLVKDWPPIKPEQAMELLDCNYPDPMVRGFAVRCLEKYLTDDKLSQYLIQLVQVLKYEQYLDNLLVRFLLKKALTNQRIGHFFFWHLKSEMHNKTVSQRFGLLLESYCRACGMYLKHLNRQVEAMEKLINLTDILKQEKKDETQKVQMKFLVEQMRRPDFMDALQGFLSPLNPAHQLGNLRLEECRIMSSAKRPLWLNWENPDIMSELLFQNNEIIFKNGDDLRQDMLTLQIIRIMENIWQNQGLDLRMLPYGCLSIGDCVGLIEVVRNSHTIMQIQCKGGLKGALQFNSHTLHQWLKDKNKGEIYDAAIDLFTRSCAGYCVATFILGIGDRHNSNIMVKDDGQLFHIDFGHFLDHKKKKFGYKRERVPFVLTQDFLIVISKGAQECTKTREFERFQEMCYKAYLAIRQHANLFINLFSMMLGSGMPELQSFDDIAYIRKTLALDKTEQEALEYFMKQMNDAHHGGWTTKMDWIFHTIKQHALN

Row | Structure (SMILES) | IC50
1 | CCc1ncnc(-c2ccc(C(=O)N3CCC(N4CCCC4)CC3)c(F)c2)c1C#Cc1ccc(N)nc1 [Example D-112] | 323 nM
2 | CCc1ncnc(-c2cc(F)c(C(=O)N3CCn4ccnc4C3)c(F)c2)c1C#Cc1ccc(N)nc1 [Example E-147] | 55.7 nM
3 | CCc1ncnc(-c2ccc(C(=O)NCCN3CCNCC3)c(F)c2)c1C#Cc1ccc(N)nc1 [Example E-167] | 157 nM
4 | CCc1ncnc(-c2cc(F)c(C(=O)N3CCN4CCC[C@H]4C3)c(Cl)c2)c1C#Cc1ccc(N)nc1 [Example E-238] | 175 nM
5 | CCc1ncnc(-c2ccc(F)c(C(=O)N(C)C)c2)c1C#Cc1ccc(N)nc1 [Example C-15] | 189 nM
6 | CCc1ncnc(-c2ccc(C(=O)N3CCN(CCN)CC3)c(Cl)c2)c1C#Cc1ccc(N)nc1 [Example E-284] | 181 nM
7 | CCc1ncnc(-c2cc(F)c(C(=O)N3CCN(C(C)COC)CC3)c(Cl)c2)c1C#Cc1ccc(N)nc1 (stereo not shown) [Example E-305] | 110 nM
8 | CCc1ncnc(-c2ccc(C(=O)N3CCC(N(C)C)CC3)c(F)c2)c1C#Cc1ccc(N)nc1 [Example D-100] | 347 nM
9 | CCc1ncnc(-c2cc(F)c(C(=O)N3CCC(N4CCOCC4)CC3)c(F)c2)c1C#Cc1ccc(N)nc1 [Example E-9] | 199 nM
10 | CCc1ncnc(-c2ccc(C(=O)N3CCOCC3)c(Cl)c2)c1C#Cc1ccc(N)nc1 [Example E-72] | 66.5 nM
11 | CCc1ncnc(-c2ccc(C(=O)N3CC[C@H](O)C3)c(Cl)c2)c1C#Cc1ccc(N)nc1 [Example E-27] | 58.3 nM
12 | CCc1ncnc(-c2ccc(C(=O)N3CCC(N4CCN(C5CCN(C)CC5)CC4)CC3)c(F)c2)c1C#Cc1ccc(N)nc1 [Example D-67] | 244 nM
13 | CCc1ncnc(-c2ccc(C(=O)N3CCN(c4ccccc4)CC3)c(F)c2)c1C#Cc1ccc(N)nc1C [Example D-25] | 498 nM
14 | CCc1ncnc(-c2ccc(C(=O)N3CCCN(C)CC3)c(C)c2)c1C#Cc1ccc(N)nc1 [Example E-129] | 237 nM
15 | CCc1ncnc(-c2cc(F)c(C(=O)N3CCC(N4CCOCC4)CC3)c(Cl)c2)c1C#Cc1ccc(N)nc1 [Example E-236] | 141 nM
16 | CCNc1ccc(C#Cc2c(CC)ncnc2-c2ccc(C(=O)N3CCn4ccnc4C3)c(F)c2)cn1 [Example E-260] | 63.8 nM
17 | CCc1ncnc(-c2ccc(C(=O)N3CC[C@H](O)C3)c(Cl)c2)c1C#Cc1ccc(N)nc1 [Example D-145] | 58 nM
18 | CCc1ncnc(-c2cc(F)c(C(=O)N3CCN(C(C)C)CC3)c(Cl)c2)c1C#Cc1ccc(N)nc1 [Example E-234] | 263 nM
19 | CCc1ncnc(-c2ccc(C(=O)N3CCN(C4COC4)CC3)c(F)c2)c1C#Cc1ccc(N)nc1 [Example E-271] | 113 nM
20 | CCNc1ccc(C#Cc2c(CC)ncnc2-c2ccc(C(=O)N3CCn4c(C)cnc4C3)c(F)c2)cn1 [Example E-262] | 134 nM
21 | CCc1ncnc(-c2ccc(C(=O)N3CCCC(O)C3)c(Cl)c2)c1C#Cc1ccc(N)nc1 (stereo not shown) [Example E-29] | 65 nM
22 | CCCCN1CCN(C(=O)c2ccc(-c3ncnc(CC)c3C#Cc3ccc(N)nc3)cc2C)CC1 [Example E-86] | 147 nM
23 | CCc1ncnc(-c2ccc(C(=O)N3CCn4c(C)cnc4C3)c(Cl)c2)c1C#Cc1ccc(N)nc1 [Example E-254] | 31.6 nM
24 | CCc1ncnc(-c2ccc(C(=O)N3CCC4(CC3)CNC4)c(Cl)c2)c1C#Cc1ccc(N)nc1 [Example E-251] | 90.7 nM
25 | CCc1ncnc(-c2ccc(C(=O)N3CCCN(C)CC3)c(F)c2)c1C#Cc1ccc(N)nc1 [Example D-118] | 404 nM

Row | Structure (SMILES) | IC50
26 | CCc1ncnc(-c2ccc(C(=O)N3CCN(CCNS(C)(=O)=O)CC3)c(Cl)c2)c1C#Cc1ccc(N)nc1 [Example E-253] | 30.6 nM
27 | CCc1ncnc(-c2ccc(C(=O)N3CCN(CC(F)(F)F)CC3)c(F)c2)c1C#Cc1ccc(N)nc1 [Example D-69] | 133 nM
28 | CCc1ncnc(-c2ccc(C(=O)NC3CC(C)(C)N(C)C(C)(C)C3)c(F)c2)c1C#Cc1ccc(N)nc1 [Example D-202] | 413 nM
29 | Cc1ncnc(-c2ccc(C(=O)N3CCN(c4ccccc4)CC3)cc2)c1C#Cc1ccc(N)nc1 [Example D-188] | 67 nM
30 | CCc1ncnc(-c2ccc(C(=O)N3CCn4c(C)cnc4C3)c(F)c2)c1C#Cc1ccc(N)nc1 [Example E-247] | 95.4 nM
31 | CCc1ncnc(-c2ccc(C(=O)N3CCOCC3)c(F)c2)c1C#Cc1ccc(N)nc1 [Example D-239] | 55 nM
32 | CCc1ncnc(-c2ccc(C(=O)N3CC[C@H](N(C)C)C3)c(F)c2)c1C#Cc1ccc(NC)nc1 [Example E-181] | 275 nM
33 | CCc1ncnc(-c2ccc(C(=O)N3CCC(C(C)(C)O)CC3)c(F)c2)c1C#Cc1ccc(N)nc1 [Example D-79] | 170 nM
34 | CCc1ncnc(-c2ccc(C(=O)N3CCN(C4CCCC4)CC3)c(OC)c2)c1C#Cc1ccc(N)nc1 [Example E-68] | 412 nM
35 | CON(C)C(=O)c1ccc(-c2ncnc(C)c2C#Cc2ccc(N)nc2)cc1F [Example D-229] | 65 nM
36 | CCc1ncnc(-c2ccc(C(=O)N3CCN4CCC[C@H]4C3)c(Cl)c2)c1C#Cc1ccc(N)nc1 [Example E-141] | 260 nM
37 | CCc1ncnc(-c2cc(F)c(C(=O)N3CCN(C(C)COC)CC3)c(F)c2)c1C#Cc1ccc(N)nc1 (stereo not shown) [Example E-298] | 187 nM
38 | CCOC(=O)N1CCN(C(=O)c2ccc(-c3ncnc(CC)c3C#Cc3ccc(N)nc3)cc2F)CC1 [Example D-116] | 129 nM
39 | CCc1ncnc(-c2ccc(C(=O)N3CCN(Cc4ncon4)CC3)c(Cl)c2)c1C#Cc1ccc(N)nc1 [Example E-342] | 137 nM
40 | CCc1ncnc(-c2ccc(C(=O)N3CCN(C(C)COC)CC3)c(Cl)c2)c1C#Cc1ccc(N)nc1 (stereo not shown) [Example E-313] | 122 nM
41 | CCc1ncnc(-c2ccc(C(=O)NC3CCCN(C4CCN(C)CC4)C3)c(F)c2)c1C#Cc1ccc(N)nc1 [Example D-205] | 335 nM
42 | CCc1ncnc(-c2ccc(C(=O)NCC3CCN(C)CC3)c(F)c2)c1C#Cc1ccc(N)nc1 [Example D-77] | 303 nM
43 | CCc1ncnc(-c2cc(F)c(C(=O)N3CCC(C(C)(C)O)CC3)c(Cl)c2)c1C#Cc1ccc(N)nc1 [Example E-237] | 121 nM
44 | CCCCN1CCN(C(=O)c2ccc(-c3ncnc(C)c3C#Cc3ccc(N)nc3)cc2)CC1 [Example D-190] | 153 nM
45 | CCc1ncnc(-c2ccc(C(=O)NC3CCN(CCOC)CC3)c(F)c2)c1C#Cc1ccc(N)nc1 [Example D-201] | 134 nM
46 | CCc1ncnc(-c2ccc(C(=O)NCCN3CCCC3=O)c(F)c2)c1C#Cc1ccc(N)nc1 [Example D-211] | 46 nM
47 | CCc1ncnc(-c2cc(F)c(C(=O)N3CCC(C(C)(C)O)CC3)c(F)c2)c1C#Cc1ccc(NC)nc1 [Example E-214] | 600 nM
48 | CCc1ncnc(-c2ccc(C(=O)N3CCN(Cc4cc(C)no4)CC3)c(Cl)c2)c1C#Cc1ccc(N)nc1 [Example E-312] | 110 nM
49 | CCc1ncnc(-c2ccc(C(=O)N3CCC(C)(O)CC3)c(Cl)c2)c1C#Cc1ccc(N)nc1 [Example D-143] | 77 nM
50 | CCc1ncnc(-c2cc(C)nc(C)c2)c1C#Cc1ccc(N)nc1 [Example C-4] | 29 nM

Row | Structure (SMILES) | IC50
51 | CCc1ncnc(-c2cc(F)c(C(=O)N3CCC4(CC3)CN(C)C4)c(Cl)c2)c1C#Cc1ccc(N)nc1 [Example E-337] | 862 nM
52 | CCc1ncnc(-c2ccc(C(=O)N3CCC(C(C)(C)O)CC3)c(Cl)c2)c1C#Cc1ccc(N)nc1 [Example E-20] | 101 nM
53 | CCc1ncnc(-c2cc(Cl)c(C(=O)N3CCC(C(C)O)CC3)c(Cl)c2)c1C#Cc1ccc(N)nc1 (stereo not shown) [Example E-200] | 58.8 nM
54 | CCc1ncnc(-c2ccc(C(=O)N(C)CCCOC)c(Cl)c2)c1C#Cc1ccc(N)nc1 [Example D-30] | 68 nM
55 | CCc1ncnc(-c2cc(F)c(C(=O)N3CCN(CC(C)(C)O)CC3)c(F)c2)c1C#Cc1ccc(NC)nc1 [Example E-212] | 645 nM
56 | CCc1ncnc(-c2ccc(C(=O)NC3CC(N4CCN(C)CC4)C3)c(F)c2)c1C#Cc1ccc(N)nc1 [Example D-198] | 203 nM
57 | CCc1ncnc(-c2ccc(C(=O)N3CCC(N4CCN(C)CC4)CC3)c(F)c2)c1C#Cc1ccc(NC)nc1 [Example E-183] | 308 nM
58 | Cc1ncnc(-c2ccc(C(=O)N3CCCO3)c(F)c2)c1C#Cc1ccc(N)nc1 [Example D-226] | 48 nM
59 | CCc1ncnc(-c2ccc(C(=O)N3CCC(CN(C)C)CC3)c(Cl)c2)c1C#Cc1ccc(N)nc1 [Example E-274] | 445 nM
60 | CCNc1ccc(C#Cc2c(CC)ncnc2-c2ccc(C(=O)N3CCN(CCCS(C)(=O)=O)CC3)c(F)c2)cn1 [Example E-258] | 110 nM
61 | CCc1ncnc(-c2ccc(C(=O)N3CCC(O)(C(C)C)CC3)c(F)c2)c1C#Cc1ccc(N)nc1 [Example D-124] | 228 nM
62 | CCc1ncnc(-c2ccc(C(=O)N3CCC4(CC3)CC(NC(=O)OC(C)(C)C)C4)c(F)c2)c1C#Cc1ccc(N)nc1 [Example E-319] | 360 nM
63 | CCc1ncnc(-c2ccnc(OC)c2)c1C#Cc1ccc(N)nc1 [Example C-33] | 61 nM
64 | CCc1ncnc(-c2ccc(C(=O)N3CCNC(=O)C3)c(OC)c2)c1C#Cc1ccc(N)nc1 [Example D-59] | 19 nM
65 | CCc1ncnc(-c2ccc(C(=O)N3CCN4CCCC[C@H]4C3)c(Cl)c2)c1C#Cc1ccc(N)nc1 [Example E-143] | 127 nM
66 | CCc1ncnc(-c2ccc(C(=O)N3CC[C@@H](N(C)C)C3)c(F)c2)c1C#Cc1ccc(N)nc1 [Example D-236] | 269 nM
67 | CCc1ncnc(-c2ccc(C(=O)N3CCCC(O)C3)c(Cl)c2)c1C#Cc1ccc(N)nc1 [Example D-147] | 65 nM
68 | CCc1ncnc(-c2ccc(C(=O)N3CCn4cnnc4C3)c(Cl)c2)c1C#Cc1ccc(N)nc1 [Example E-255] | 4.83 nM
69 | CCc1ncnc(-c2cc(F)c(C(=O)N3CCN(CC(F)F)CC3)c(F)c2)c1C#Cc1ccc(NC)nc1 [Example E-217] | 327 nM
70 | CCc1ncnc(-c2ccc(C(=O)N3CCC(C4CCN(C)CC4)CC3)c(Cl)c2)c1C#Cc1ccc(N)nc1 [Example D-139] | 374 nM
71 | CCc1ncnc(-c2ccc(C(=O)N3CC[C@@H](N(C)C)C3)c(Cl)c2)c1C#Cc1ccc(NC)nc1 [Example E-188] | 356 nM
72 | CCc1ncnc(-c2cc(F)c(C(=O)N3CCC4(CC3)COC4)c(F)c2)c1C#Cc1ccc(N)nc1 [Example E-150] | 120 nM
73 | CCc1ncnc(-c2ccc(C(=O)N3CCN(CCO)CC3)c(OC)c2)c1C#Cc1ccc(N)nc1 [Example D-57] | 152 nM
